Source: US12042483B2, “Prophylactic and therapeutic drug for nonalcoholic fatty liver disease” (Kowa Company, Ltd., priority 2017, dated 2024)

How the values were obtained:
Format in all cases: in vivo
NASH-HCC mouse [1] = test: Lipid droplet size in hepatocytes, NASH-HCC mouse model (Example 1, Compound 1 with tofogliflozin); conditions: 3 weeks, control 1.17, not significant vs control
Experimental: A NASH-HCC mouse is a model animal that develops liver cirrhosis from fatty liver via NASH when it is fed with a high fat diet, and subsequently develops hepatocellular carcinoma (Non-Patent Document 9). The effect of compound 1 combined with tofogliflozin was examined using the NASH-HCC mouse model. NASH-HCC mice were prepared with reference to Non-Patent Document 9, and were used for this experiment. Specifically, male C57BL/6J mice were subcutaneously administered 200 μg of streptozotocin on the second day after birth. The mice were fed ad libitum with a high-fat diet (HFD-32, Clea Japan, Inc.) for 2 weeks starting from 4-week-old. The mice were separated into four groups as described in below 2) and were administered drugs from 6-week-old to 9-week-old as described in below 3). Daily food consumption of the mice in each group were measured while the drugs were administered so that the mice of all groups were fed with the same amount of food as those for the control group. […] Using the specimens, the lipid droplet size in hepatocyte was analyzed by image analysis software Image J. The area of 6000 to 10,000 lipid droplets was measured in each specimen. The median of the lipid droplet area was calculated for each mouse and then the median and quartile were calculated for each group based on the median for each mouse in the group. […]

NASH-HCC mouse [2] = test: Ballooning of hepatocytes score, NASH-HCC mouse model (Example 1, Compound 1 with tofogliflozin); conditions: 3 weeks, group mean of scores 0-2, control 1.33, not significant vs control
Experimental: A NASH-HCC mouse is a model animal that develops liver cirrhosis from fatty liver via NASH when it is fed with a high fat diet, and subsequently develops hepatocellular carcinoma (Non-Patent Document 9). The effect of compound 1 combined with tofogliflozin was examined using the NASH-HCC mouse model. NASH-HCC mice were prepared with reference to Non-Patent Document 9, and were used for this experiment. Specifically, male C57BL/6J mice were subcutaneously administered 200 μg of streptozotocin on the second day after birth. The mice were fed ad libitum with a high-fat diet (HFD-32, Clea Japan, Inc.) for 2 weeks starting from 4-week-old. […] Daily food consumption of the mice in each group were measured while the drugs were administered so that the mice of all groups were fed with the same amount of food as those for the control group. […] Using the specimens, the lipid droplet size in hepatocyte was analyzed by image analysis software Image J. The area of 6000 to 10,000 lipid droplets was measured in each specimen. The median of the lipid droplet area was calculated for each mouse and then the median and quartile were calculated for each group based on the median for each mouse in the group. […] Ballooning of hepatocytes in each mouse was scored under blind conditions according to the following criteria (Kleiner et al., Hepatology 41, 1313-21, 2005). […]

NASH-HCC mouse [3] = test: Ballooning of hepatocytes score, NASH-HCC mouse model (Example 2, Compound 1 with ipragliflozin); conditions: 3 weeks, group mean of scores 0-2, control 1.50, not significant vs control
Experimental: Ballooning of hepatocytes in each mouse was scored under blind conditions according to the following criteria (Kleiner et al., Hepatology 41, 1313-21, 2005). No balloon cells: 0 Balloon cell is rare (Few balloon cells): 1 Many Balloon cells or prominent (Ballooning): 2 Then, the mean value of the scores (ballooning score) was calculated in each group and the values were shown (FIG. 2). Statistical processing was performed using statistical software EZR, which extends the functions of R and R commander. The software is distributed free of charge on the website of Jichi Medical University Saitama Medical Center (Bone Marrow Transplantation (2013) 48, 452-458). The Steel test (N=5 to 7) was performed using EZR, the drug administration group was labeled with the mark * in figures when the group had the significant difference at p<0.05 with respect to the control group, and labeled with the mark ** when the group had the significant difference at p<0.01. The effect of Compound 1 combined with ipragliflozin was examined in NASH-HCC mice (Non-Patent Document 9). NASH-HCC mice were prepared in the same manner as in 1) of Example 1, and were used for this experiment. […]

[4] = 0.1 mg/kg Compound 1, oral once a day
[5] = 10 mg/kg tofogliflozin, oral once a day

CC[C@@H](Oc1cccc(CN(CCCOc2ccc(OC)cc2)c2nc3ccccc3o2)c1)C(=O)O [Compound 1, (R)-2-[3-[[N-(benzoxazol-2-yl)-N-3-(4-methoxyphenoxy)propyl]aminomethyl]phenoxy]butyric acid]
median of lipid droplet size (NASH-HCC mouse [1]; [4]): 1.00 μm^2 | ballooning score (NASH-HCC mouse [2]; [4]): 0.60 | ballooning score (NASH-HCC mouse [3]; [4]): 1.35

OC[C@H]1O[C@@H](c2ccc(F)c(Cc3cc4ccccc4s3)c2)[C@H](O)[C@@H](O)[C@@H]1O [ipragliflozin, (1S)-1,5-anhydro-1-C-{3-[(1-benzothiophen-2-yl)methyl]-4-fluorophenyl}-D-glucitol]
ballooning score (NASH-HCC mouse [3]; 3 mg/kg ipragliflozin, oral once a day): 0.88

CCc1ccc(Cc2ccc3c(c2)[C@]2(OC3)O[C@H](CO)[C@@H](O)[C@H](O)[C@H]2O)cc1 [tofogliflozin, (1S,3′R,4'S,5'S,6′R)-6-[(4-ethylphenyl)methyl]-6′-(hydroxymethyl)-3′,4′,5′,6′-tetrahydro-3H-spiro[2-benzofuran-1,2′-pyran]-3′,4′,5′-triol]
median of lipid droplet size (NASH-HCC mouse [1]; [5]): 1.00 μm^2 | ballooning score (NASH-HCC mouse [2]; [5]): 0.71
